Test results: ChEMBL document CHEMBL1949618, “Synthesis and properties of mRNA cap analogs containing imidodiphosphate moiety--fairly mimicking natural cap structure, yet resistant to enzymatic hydrolysis” (Bioorg Med Chem, 2012)
One block for each compound: values may come before it. The source made the active and inactive calls. No cut-off for these calls is given here.

Legend:
Homo sapiens = species on record: Homo sapiens; test: Selectivity ratio of Ka for human recombinant DcpS to Ka for eIF4E
[1] = molecular target: Eukaryotic translation initiation factor 4E (Homo sapiens) (UniProt P06730); test: Binding affinity to recombinant eIF4E by fluorescence quenching titration method
Eukaryotic translation initiation factor 4E (Homo sapiens), sequence (P06730 whole entry): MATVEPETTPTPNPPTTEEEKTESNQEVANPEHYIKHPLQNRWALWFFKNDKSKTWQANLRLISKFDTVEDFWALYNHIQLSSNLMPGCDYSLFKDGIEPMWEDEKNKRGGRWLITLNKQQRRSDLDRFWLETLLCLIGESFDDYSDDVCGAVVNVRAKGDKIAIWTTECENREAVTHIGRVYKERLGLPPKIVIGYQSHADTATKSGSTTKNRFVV

[2] = molecular target: Eukaryotic translation initiation factor 4E (Oryctolagus cuniculus) (UniProt P29338); test: Inhibition of eIF4E-mediated mRNA translation in rabbit reticulocyte lysate assessed as translation efficiency after 60 mins by luciferase reporter gene assay relative to m7GpppG-capped mRNA
Eukaryotic translation initiation factor 4E (Oryctolagus cuniculus), sequence (P29338 whole entry): as the sequence (P06730 whole entry) above, with T16P, T17A, E174D counted along it

[3] = Chemical stability of the compound in aqueous buffer at pH 6 assessed as decomposition at 5 mM up to 2 hrs by RP-HPLC; assay type: physicochemical; conditions: pH 6, 2 h, 5000 µM
[4] = molecular target: T1, m7GpppX diphosphatase (Homo sapiens) (UniProt Q96C86)
T1 sequence (whole entry): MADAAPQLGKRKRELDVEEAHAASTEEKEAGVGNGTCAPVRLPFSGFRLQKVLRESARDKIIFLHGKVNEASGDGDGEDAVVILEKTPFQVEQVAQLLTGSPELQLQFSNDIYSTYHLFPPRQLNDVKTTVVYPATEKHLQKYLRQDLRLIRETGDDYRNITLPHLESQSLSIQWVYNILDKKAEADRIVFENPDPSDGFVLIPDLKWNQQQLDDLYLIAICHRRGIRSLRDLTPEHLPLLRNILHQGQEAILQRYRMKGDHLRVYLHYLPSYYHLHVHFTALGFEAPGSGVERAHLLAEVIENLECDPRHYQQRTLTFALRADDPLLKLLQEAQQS
Description: Binding affinity to human recombinant DcpS by fluorescence quenching titration method

[5] = Chemical stability of the compound in aqueous buffer at pH 8 assessed as decomposition at 5 mM after 24 hrs by RP-HPLC; assay type: physicochemical; conditions: read-out: Drug degradation
Nucleic Acid = test: Capping efficiency in mRNA after 60 mins by gel electrophoresis in the presence of SP6 polymerase; assay type: nucleic-acid assay
[6] = Chemical stability of the compound in aqueous buffer at pH 2 assessed as decomposition at 5 mM up to 2 hrs by RP-HPLC; assay type: physicochemical; conditions: pH 2, 2 h, 5000 µM
[7] = Chemical stability of the compound in aqueous buffer at pH 6 assessed as decomposition at 5 mM after 24 hrs by RP-HPLC; assay type: physicochemical; conditions: read-out: Drug degradation
[8] = Stability of the compound assessed as human recombinant DcpS -mediated hydrolysis after 2 hrs by HPLC; assay type: ADME
[9] = Chemical stability of the compound in aqueous buffer at pH 2 assessed as decomposition at 5 mM after 24 hrs by RP-HPLC; assay type: physicochemical; conditions: read-out: Drug degradation
[10] = Stability of the compound at -20 degreeC after 12 months; assay type: physicochemical; conditions: 8766 h
[11] = Chemical stability of the compound in aqueous buffer at pH 8 assessed as decomposition at 5 mM up to 2 hrs by RP-HPLC; assay type: physicochemical; conditions: pH 8, 2 h, 5000 µM
[12] = molecular target: T2, Eukaryotic translation initiation factor 4E (Oryctolagus cuniculus, UniProt P29338); test: Inhibition of eIF4E-mediated mRNA translation in rabbit reticulocyte lysate pre-incubated for 60 mins prior to mRNA addition by luciferase reporter gene assay
T2 sequence (P29338 whole entry): as the sequence (P06730 whole entry) above, with T16P, T17A, E174D counted along it

[13] = molecular target: T2, Eukaryotic translation initiation factor 4E; test: Inhibition of eIF4E-mediated mRNA translation in rabbit reticulocyte lysate by luciferase reporter gene assay

- Ratio (Homo sapiens): 3.1
- Ka [1]: 51.8 µM⁻¹
Compound: C[n+]1cn([C@@H]2O[C@H](COP(=O)(O)CP(=O)(O)OP(=O)([O-])OP(=O)(O)OC[C@H]3O[C@@H](n4cnc5c(=O)[nH]c(N)nc54)[C@H](O)[C@@H]3O)[C@@H](O)[C@H]2O)c2nc(N)nc(O)c21

- fold change (FC) [2]: 1.25
Compound: CO[C@@H]1[C@H](O)[C@@H](COP(=O)([O-])OP(=O)(O)CP(=O)(O)OC[C@H]2O[C@@H](n3cnc4c(=O)[nH]c(N)nc43)[C@H](O)[C@@H]2O)O[C@H]1n1c[n+](C)c2c(O)nc(N)nc21

- Drug degradation [3]: Not Active
- Ka [4]: 33.6 µM⁻¹
- degraded at 24 h, 5000 µM [5]: < 10%
- Activity (Nucleic Acid): Active
- Ratio (Homo sapiens): 1.8
- Drug degradation [6]: Not Active
- degraded at 24 h, 5000 µM [7]: < 10%
- Drug degradation [8]: Not Active
- Ka [1]: 18.5 µM⁻¹
- degraded at 24 h, 5000 µM [9]: < 10%
- Stability [10]: Stable
- Drug degradation [11]: Not Active
- fold change (FC) [2]: 1.13
Compound: CO[C@@H]1[C@H](O)[C@@H](COP(=O)([O-])NP(=O)([O-])OP(=O)([O-])OC[C@H]2O[C@@H](n3cnc4c(=O)[nH]c(N)nc43)[C@H](O)[C@@H]2O)O[C@H]1n1c[n+](C)c2c(=O)[nH]c(N)nc21.[Na+].[Na+]

- Drug degradation [3]: Not Active
- degraded at 24 h, 5000 µM [5]: < 10%
- Activity (Nucleic Acid): Active
- Drug degradation [6]: Not Active
- degraded at 24 h, 5000 µM [7]: < 10%
- Drug degradation [8]: Active
- Ka [1]: 132 µM⁻¹
- degraded at 24 h, 5000 µM [9]: < 10%
- Stability [10]: Stable
- Drug degradation [11]: Not Active
- fold change (FC) [2]: 1.01
Compound: CO[C@@H]1[C@H](O)[C@@H](COP(=O)([O-])OP(=O)([O-])OP(=O)([O-])NP(=O)([O-])OC[C@H]2O[C@@H](n3cnc4c(=O)[nH]c(N)nc43)[C@H](O)[C@@H]2O)O[C@H]1n1c[n+](C)c2c(=O)[nH]c(N)nc21.[Na+].[Na+].[Na+]

- fold change (FC) [2]: 1.56
Compound: CO[C@@H]1[C@H](O)[C@@H](COP(=O)(O)OP(=O)([O-])OP(=O)(O)CP(=O)(O)OC[C@H]2O[C@@H](n3cnc4c(=O)[nH]c(N)nc43)[C@H](O)[C@@H]2O)O[C@H]1n1c[n+](C)c2c(O)nc(N)nc21

- Drug degradation [3]: Not Active
- degraded at 24 h, 5000 µM [5]: < 10%
- IC50 [12]: 16 µM
- Drug degradation [6]: Not Active
- degraded at 24 h, 5000 µM [7]: < 10%
- Drug degradation [8]: Active
- Ka [1]: 141 µM⁻¹
- degraded at 24 h, 5000 µM [9]: < 10%
- Stability [10]: Stable
- Drug degradation [11]: Not Active
- IC50 [13]: 3.52 µM
Compound: C[n+]1cn([C@@H]2O[C@H](COP(=O)([O-])OP(=O)(O)OP(=O)(O)NP(=O)(O)OC[C@H]3O[C@@H](n4cnc5c(=O)[nH]c(N)nc54)[C@H](O)[C@@H]3O)[C@@H](O)[C@H]2O)c2nc(N)[nH]c(=O)c21.N.N.N

- fold change (FC) [2]: 0.18
Compound: Nc1nc2c(ncn2[C@@H]2O[C@H](COP(=O)(O)OP(=O)(O)OP(=O)(O)OC[C@H]3O[C@@H](n4cnc5c(N)ncnc54)[C@H](O)[C@@H]3O)[C@@H](O)[C@H]2O)c(=O)[nH]1

- Drug degradation [3]: Not Active
- Ka [4]: 47.4 µM⁻¹
- degraded at 24 h, 5000 µM [5]: < 10%
- Activity (Nucleic Acid): Active
- Ratio (Homo sapiens): 0.38
- Drug degradation [6]: Not Active
- degraded at 24 h, 5000 µM [7]: < 10%
- Drug degradation [8]: Not Active
- Ka [1]: 125 µM⁻¹
- degraded at 24 h, 5000 µM [9]: < 10%
- Stability [10]: Stable
- Drug degradation [11]: Not Active
- fold change (FC) [2]: 0.73
Compound: CO[C@@H]1[C@H](O)[C@@H](COP(=O)([O-])NP(=O)(O)OP(=O)(O)OP(=O)(O)OC[C@H]2O[C@@H](n3cnc4c(=O)[nH]c(N)nc43)[C@H](O)[C@@H]2O)O[C@H]1n1c[n+](C)c2c(=O)[nH]c(N)nc21.N.N.N

- Ka [1]: 10.8 µM⁻¹
Compound: CO[C@@H]1[C@H](O)[C@@H](COP(=O)(O)OP(=O)([O-])OP(=O)(O)OC[C@H]2O[C@@H](n3cnc4c(=O)[nH]c(N)nc43)[C@H](O)[C@@H]2O)O[C@H]1n1c[n+](C)c2c(O)nc(N)nc21

- Drug degradation [3]: Not Active
- Ka [4]: 155 µM⁻¹
- degraded at 24 h, 5000 µM [5]: < 10%
- IC50 [12]: 3.58 µM
- Ratio (Homo sapiens): 1.4
- Drug degradation [6]: Not Active
- degraded at 24 h, 5000 µM [7]: < 10%
- Drug degradation [8]: Not Active
- Ka [1]: 112 µM⁻¹
- degraded at 24 h, 5000 µM [9]: < 10%
- Stability [10]: Stable
- Drug degradation [11]: Not Active
- IC50 [13]: 2.62 µM
Compound: C[n+]1cn([C@@H]2O[C@H](COP(=O)([O-])NP(=O)([O-])OP(=O)([O-])OP(=O)([O-])OC[C@H]3O[C@@H](n4cnc5c(=O)[nH]c(N)nc54)[C@H](O)[C@@H]3O)[C@@H](O)[C@H]2O)c2nc(N)[nH]c(=O)c21.[Na+].[Na+].[Na+]

- Ratio (Homo sapiens): 37.1
- Ka [1]: 6.3 µM⁻¹
Compound: C[n+]1cn([C@@H]2O[C@H](COP(=O)(O)CP(=O)(O)OP(=O)([O-])OC[C@H]3O[C@@H](n4cnc5c(=O)[nH]c(N)nc54)[C@H](O)[C@@H]3O)[C@@H](O)[C@H]2O)c2nc(N)nc(O)c21

- Ratio (Homo sapiens): > 1
- Ka [1]: 12.5 µM⁻¹
- fold change (FC) [2]: 1
Compound: C[n+]1cn([C@@H]2O[C@H](COP(=O)(O)OP(=O)([O-])OP(=O)(O)OC[C@H]3O[C@@H](n4cnc5c(=O)[nH]c(N)nc54)[C@H](O)[C@@H]3O)[C@@H](O)[C@H]2O)c2nc(N)nc(O)c21

- fold change (FC) [2]: 1.5
Compound: CO[C@@H]1[C@H](O)[C@@H](COP(=O)(O)CP(=O)(O)OP(=O)([O-])OP(=O)(O)OC[C@H]2O[C@@H](n3cnc4c(=O)[nH]c(N)nc43)[C@H](O)[C@@H]2O)O[C@H]1n1c[n+](C)c2c(O)nc(N)nc21

- IC50 [12]: > 20 µM
Compound: C[n+]1cn([C@@H]2O[C@H](COP(=O)(O)OP(=O)([O-])OP(=O)(O)OC[C@H]3O[C@@H](n4cnc5c(=O)[nH]c(N)nc54)[C@H](O)[C@@H]3O)[C@@H](O)[C@H]2O)c2nc(N)[nH]c(=O)c21

- Drug degradation [3]: Not Active
- Ka [4]: 218 µM⁻¹
- degraded at 24 h, 5000 µM [5]: < 10%
- IC50 [12]: 3.74 µM
- Ratio (Homo sapiens): 15
- Drug degradation [6]: Not Active
- degraded at 24 h, 5000 µM [7]: < 10%
- Drug degradation [8]: Not Active
- Ka [1]: 14.6 µM⁻¹
- degraded at 24 h, 5000 µM [9]: < 10%
- Stability [10]: Stable
- Drug degradation [11]: Not Active
- IC50 [13]: 3.97 µM
Compound: C[n+]1cn([C@@H]2O[C@H](COP(=O)([O-])NP(=O)(O)OP(=O)(O)OC[C@H]3O[C@@H](n4cnc5c(=O)[nH]c(N)nc54)[C@H](O)[C@@H]3O)[C@@H](O)[C@H]2O)c2nc(N)[nH]c(=O)c21.N.N

- Ka [1]: 111 µM⁻¹
Compound: C[n+]1cn([C@@H]2O[C@H](COP(=O)(O)OP(=O)(O)OP(=O)([O-])OP(=O)(O)OC[C@H]3O[C@@H](n4cnc5c(=O)[nH]c(N)nc54)[C@H](O)[C@@H]3O)[C@@H](O)[C@H]2O)c2nc(N)nc(O)c21

- Drug degradation [8]: Active
- Ka [1]: 99.8 µM⁻¹
- fold change (FC) [2]: 1.56
Compound: CO[C@@H]1[C@H](O)[C@@H](COP(=O)(O)OP(=O)([O-])OP(=O)(O)OP(=O)(O)OC[C@H]2O[C@@H](n3cnc4c(=O)[nH]c(N)nc43)[C@H](O)[C@@H]2O)O[C@H]1n1c[n+](C)c2c(O)nc(N)nc21

- fold change (FC) [2]: 1.1
Compound: CO[C@@H]1[C@H](O)[C@@H](COP(=O)(O)CP(=O)(O)OP(=O)([O-])OC[C@H]2O[C@@H](n3cnc4c(=O)[nH]c(N)nc43)[C@H](O)[C@@H]2O)O[C@H]1n1c[n+](C)c2c(O)nc(N)nc21

- fold change (FC) [2]: 1.47
Compound: CO[C@H]1[C@@H](O)[C@H](n2c[n+](C)c3c(O)nc(N)nc32)O[C@@H]1COP(=O)(O)OP(=O)([O-])OP(=O)(O)OC[C@H]1O[C@@H](n2cnc3c(=O)[nH]c(N)nc32)[C@H](O)[C@@H]1O

- IC50 [12]: > 20 µM
- Drug degradation [8]: Active
- IC50 [13]: 5 µM
Compound: C[n+]1cn([C@@H]2O[C@H](COP(=O)(O)OP(=O)(O)OP(=O)(O)OP(=O)(O)OC[C@H]3O[C@@H](n4cnc5c(=O)[nH]c(N)nc54)[C@H](O)[C@@H]3O)[C@@H](O)[C@H]2O)c2nc(N)[n-]c(=O)c21

- Ka [4]: 146 µM⁻¹
Compound: C[n+]1cn([C@@H]2O[C@H](COP(=O)(S)OP(=O)(O)OP(=O)([O-])OC[C@H]3O[C@@H](n4cnc5c(=O)[nH]c(N)nc54)[C@H](O)[C@@H]3O)[C@@H](O)[C@H]2O)c2nc(N)[nH]c(=O)c21 (some centres not stated)
